# Reference: patent publication US20240352145A1, “EFFICACY OF ANTI-TROP-2-SN-38 ANTIBODY DRUG CONJUGATES FOR THERAPY OF TUMORS RELAPSED/REFRACTORY TO CHECKPOINT INHIBITORS” (Immunomedics, Inc., priority 2016, published 2024)
# T1: Trop-2 (Homo sapiens, UniProt P09758)
# T1 sequence (P09758 27-323): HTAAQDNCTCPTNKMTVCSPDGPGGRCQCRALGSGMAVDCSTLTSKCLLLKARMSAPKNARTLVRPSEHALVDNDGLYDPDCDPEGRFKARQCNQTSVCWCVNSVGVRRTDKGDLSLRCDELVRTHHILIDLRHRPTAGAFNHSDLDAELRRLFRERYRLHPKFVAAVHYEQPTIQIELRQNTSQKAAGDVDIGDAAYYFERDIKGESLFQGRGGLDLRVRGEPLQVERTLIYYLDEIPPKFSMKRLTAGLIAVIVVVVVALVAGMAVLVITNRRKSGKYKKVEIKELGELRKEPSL
# Tests used:
# [1] = in vivo; cited from earlier work
# Calu-3 = Calu-3 xenograft therapy; format: in vivo, mouse; details: for tumor volume (TV): 0.04 mg SN-38/kg every 4 days x 4; for outcome: 0.4 mg/kg SN-38
# Capan-1 tumors = experiment: Capan-1 xenograft therapy; format: in vivo, mouse; details: for tumor-free mice at end of study: day 140; for average tumor size: day 35, 0.4 mg SN-38/kg; for tumor volume (TV): day 49, 0.4 mg/kg SN-38
# Experimental: (§1) NCr female athymic nude (nu/nu) mice, 4 to 8 weeks old, and male Swiss-Webster mice, 10 weeks old, were purchased from Taconic Farms. Tolerability studies were performed in Cynomolgus monkeys (Macaca fascicularis; 2.5-4 kg male and female) by SNBL USA, Ltd. Animals were implanted subcutaneously with different human cancer cell lines. Tumor volume (TV) was determined by measurements in 2 dimensions using calipers, with volumes defined as: L×w^2/2, where L is the longest dimension of the tumor and w is the shortest. […] This dosing frequency reflected a consideration of the conjugate's serum half-life […], to allow a more continuous exposure to the ADC.
# (§2) Statistics—Growth curves are shown as percent change in initial TV over time. Statistical analysis of tumor growth was based on area under the curve (AUC). Profiles of individual tumor growth were obtained through linear-curve modeling. An f-test was employed to determine equality of variance between groups before statistical analysis of growth curves. A 2-tailed t-test was used to assess statistical significance between the various treatment groups and controls, except for the saline control, where a 1-tailed t-test was used (significance at P≤0.05). Statistical comparisons of AUC were performed only up to the time that the first animal within a group was euthanized due to progression.
# [2] = tested on: BxPC-3 human pancreatic tumors; experiment: BxPC-3 xenograft therapy; format: in vivo, mouse; details: day 21; equivalent amounts of ADC
# Experimental: as §1, §2
# BxPC-3 [3] = experiment: dsDNA breaks, γH2AX induction in BxPC-3; format: cell-based, human; details: BxPC-3, 20 μg/ml for 30 min
# Experimental: Assessment of Double-Stranded DNA Breaks In Vitro—For drug activity testing, BxPC-3 cells were seeded in 6-well plates at 5×10^5 cells/well and held at 37° C. overnight. […] The following morning, cells were trypsinized briefly, spun down, stained with Fixable Viability Stain 450 (BD Biosciences, San Jose, CA), washed with 1% BSA-PBS, and then fixed in 4% formalin for 15 min, washed again and permeabilized in 0.15% Triton-X100 in PBS for another 15 min. After washing twice with 1% BSA-PBS, cells were incubated with mouse anti-γH2AX-AF488 (EMD Millipore Corporation, Temecula, CA) for 45 min at 4° C. The signal intensity of γH2AX was measured by flow cytometry using a BD FACSCanto (BD Biosciences, San Jose, CA).
# [4] = tested on: human gastric carcinoma xenograft, NCI-N87; experiment: NCI-N87 gastric carcinoma xenograft, Example 17; format: in vivo, mouse
# Description: (§3) In Vivo Therapeutic Studies—NCr female athymic nude (nu/nu) mice, 4-8 weeks old, were purchased from Taconic Farms (Germantown, NY). NCI-N87 gastric tumor xenografts were established by harvesting cells from tissue culture and making a final cell suspension 1:1 in matrigel (BD Bioscience; San Jose, CA), with each mouse receiving a total of 1×10^7 cells s.c. in the right flank. For BxPC-3. xenografts of 1 g were harvested, and a tumor suspension made in HBSS to a concentration of 40% tumor w/v. This suspension was mixed 1:1 with matrigel for a final tumor suspension of 20% w/v. […] For IHC, tumors were allowed to grow to approximately 0.5 cm^3 before the mice were euthanized and the tumors removed, formalin-fixed and paraffin-embedded. For therapy studies, mice were randomized into treatment groups and therapy begun when tumor volumes were approximately 0.25 cm^3.
# (§4) Mice were euthanized and deemed to have succumbed to disease once tumors grew to greater than 1.0 cm^3 in size. […] Time to progression (TTP) was determined as time post-therapy initiation when the tumor grew more than 20% in size from its nadir.
# Survival studies were analyzed using Kaplan-Meier plots (log-rank analysis), using the Prism GraphPad Software (v4.03) software package (Advanced Graphics Software, Inc., Encinitas, CA).
# [5] = tested on: NCI-N87 human gastric tumor xenografts; experiment: Dose schedules and chronic dosing, NCI-N87 xenograft; format: in vivo, mouse; details: four cycles
# Description: as §3, §4
# A similar dose schedule experiment was performed in mice bearing NCI-N87 human gastric tumor xenografts (not shown). […] Likewise, in terms of overall survival, while all three dose schedules provided a significant survival benefit when compared to untreated control (P<0.0001), there were no differences between any of these three different schedules.
# In all, four treatment cycles were administered to the animals.
# BxPC-3 [6] = experiment: ADCC activity of hRS7-ADC conjugates; format: cell-based, human; details: 33.3 nM; PBMC effector to target ratio 100:1
# Description: PBMCs were purified from blood purchased from the Blood Center of New Jersey. A Trop-2-positive human pancreatic adenocarcinoma cell line (BxPC-3) was used as the target cell line with an effector to target ratio of 100:1.
# COLO 205 tumors = experiment: COLO 205 xenograft therapy; format: in vivo; details: for tumor volume (TV): 0.4 mg/kg, q4dx8, 28-day treatment period
# [7] = Irinotecan MTD and conversion in mice; format: in vivo, mouse
# MDA-MB-468 TNBC tumors = experiment: MDA-MB-468 TNBC xenograft; format: in vivo, mouse; details: one animal each, tumors progressed to ~0.7 cm^3 on irinotecan
# [8] = animals given irinotecan; Goldenberg et al., 2014; cited from earlier work
# [9] = weekly x 4 doses; Camptosar package insert; cited from earlier work
# [10] = mouse, in vivo
# Description: Pharmacokinetics—Naive female NCr nude (nu/nu) mice, 8-10 weeks old, were purchased from Taconic Farms (Germantown, NY). […] ELISA was utilized to determine serum concentrations of total hRS7 IgG by competing for the binding to an anti-hRS7 IgG idiotype antibody with a horseradish peroxidase conjugate of hRS7. […] Pharmacokinetic (PK) parameters were computed by noncompartmental analysis using Phoenix WinNonlin software (version 6.3; Pharsight Corp., Mountainview, CA).
# Trop-2 = biological target: T1, Trop-2; experiment: In vitro cell binding, multiple cell lines; set-up: endogenous in cells; host or cells: human cancer cell lines (ATCC)
# Experimental: In Vitro Cell Binding—LumiGLO Chemiluminescent Substrate System (KPL, Gaithersberg, MD) was used to detect antibody binding to cells. Briefly, cells were plated into a 96 black-well, flat-clear-bottom plate overnight. Antibodies were serially diluted 1:2 and added in triplicate, yielding a concentration range from 0.03 to 66.7 nM. After incubating for 1 h at 4° C., the media was removed and the cells washed with fresh cold media followed by the addition of a 1:20,000 dilution of goat-antihuman horseradish peroxidase-conjugated secondary antibody (Jackson Immunoresearch, West Grove, PA) for 1 h at 4° C. The plates were again washed before the addition of the LumiGLO reagent. Plates were read for luminescence using an Envision plate reader (Perkin Elmer, Boston MA). Data were analyzed by non-linear regression to determine the equilibrium dissociation constant (KD). Statistical comparisons of KD-values were made with Prism GraphPad Software (v4.03) (Advanced Graphics Software, Inc.; Encinitas, CA) using an F-Test on the best-fit curves for the data. Significance was set at P<0.05.
# Capan-1 = experiment: Combination 90Y-hPAM4 RAIT + ADC, Capan-1 xenograft; format: in vivo, mouse
# Description: Objective responses occurred in most animals, but they were more robust in both of the combination groups as compared to each agent given alone. […] These studies provide the first evidence that combined radioimmunotherapy and ADC enhances efficacy at safe doses.
# pancreatic cancer = experiment: PAM4 clinical trial, 90Y-hPAM4 with gemcitabine; format: in vivo, human; details: 22 CT-assessable patients
# Experimental: In the ongoing PAM4 clinical trials, a four week clinical treatment cycle is performed. In week 1, subjects are administered a dose of ^111In-hPAM4, followed at least 2 days later by gemcitabine dose. In weeks 2, 3 and 4, subjects are administered a ^90Y-hPAM4 dose, followed at least 2 days later by gemcitabine (200 mg/m^2). Escalation started at 3×6.5 mCi/m^2. The maximum tolerated dose in front-line pancreatic cancer patients was 3×15 mCi/m^2 (hematologic toxicity is dose-limiting).
# [11] = 0.2 mg/kg SN-38 twice weekly x 4 weeks
molecule,measurement,setting,value
veltuzumab,immunogenicity in subjects,[1],less immunogenic in subjects than rituximab
hLL2-CL2-SN-38 [reference compound],tumor volume (TV),Calu-3,0.80±0.91 cm^3
same,outcome,Calu-3,tumors regrew
hA20-CL2A-SN-38 [reference compound],tumor-free mice at end of study,Capan-1 tumors; [11],20%
same,tumor volume (TV),[2],1.05±0.73 cm^3
same,"Percent Positive, γH2AX","BxPC-3 [3]; untreated 18.8 ± 6.3, listed as hA20-SN-38",12.7 ± 2.4%
same,"Mean Fluorescence Intensity, γH2AX",BxPC-3 [3]; untreated 2516 ± 191,2246 ± 58
same,median survival time (MST),[4]; 14 days for saline control,24 days
same,mean time to progression (TTP),"[4]; mouse, in vivo",4.1 ± 2.0 days
same,TTP,"[5]; 0.5 mg once a week for two weeks, one week off",4.7 ± 2.2 days
same,median survival,[5]; chronic dosing,21 days
hRS7-Pro-2-PDox,specific lysis (ADCC),BxPC-3 [6],not significantly different
"CCc1c2c(nc3ccc(OC(=O)N4CCC(N5CCCCC5)CC4)cc13)-c1cc3c(c(=O)n1C2)COC(=O)[C@]3(O)CC [irinotecan, 7-ethyl-10-[4-(1-piperidino)-1-piperidino]carbonyloxycamptothecin]",efficacy of irinotecan at MTD,"COLO 205 tumors; 24 mg SN-38/kg, q2dx5",as effective as hRS7-CL2-SN-38
same,average tumor size,Capan-1 tumors,1.78±0.62 cm^3
same,MTD,"[7]; IV, single injection",40 mg/kg
same,MTD,[7]; q2dx5,24 mg SN-38/kg
same,decrease in tumor size after re-treatment,MDA-MB-468 TNBC tumors,23%
same,share of total serum SN-38 that is glucuronidated,[8],> 50%
same,grades 3 and 4 late diarrhea,[9],31%
hRS7-CL2-SN-38,tumor growth vs untreated and hA20-CL2A-SN-38,COLO 205 tumors; 0.4 mg/kg SN-38 twice weekly x 4 weeks,significantly inhibited tumor growth
same,tumor volume (TV),COLO 205 tumors,0.16±0.09 cm^3
same,tumor growth vs untreated and hA20-CL2A-SN-38,Capan-1 tumors; [11],significantly inhibited tumor growth
same,average tumor size,Capan-1 tumors,0.04±0.05 cm^3
same,tumor volume (TV),Capan-1 tumors,0.17±0.18 cm^3
same,tumor-free mice at end of study,Capan-1 tumors; [11],40%
same,tumor volume (TV),Calu-3,0.14±0.22 cm^3
same,outcome,Calu-3,remained tumor-free until the end of the study on day 147
hA20-CL2-SN-38 [reference compound],tumor volume (TV),COLO 205 tumors,1.19±0.59 cm^3
same,tumor volume (TV),Capan-1 tumors,0.80±0.68 cm^3
hRS7-NEM [reference compound],specific lysis (ADCC),BxPC-3 [6],no difference between hRS7-NEM and sacituzumab govitecan
same,"half-life, Cmax, AUC, clearance, MRT vs parental hRS7",[10],no significant differences
same,KD,Trop-2,sub-nanomolar range
"^90Y-hPAM4 (conjugate, chains of the INN, looked up, 90Y radiolabel) VH: QVQLQQSGAEVKKPGASVKVSCEASGYTFPSYVLHWVKQAPGQGLEWIGYINPYNDGTQYNEKFKGKATLTRDTSINTAYMELSRLRSDDTAVYYCARGFGGSYGFAYWGQGTLVTVSS VL: DIQLTQSPSSLSASVGDRVTMTCSASSSVSSSYLYWYQQKPGKAPKLWIYSTSNLASGVPARFSGSGSGTDFTLTISSLQPEDSASYFCHQWNRYPYTFGGGTRLEIK",tumor-free mice after 20 weeks,"Capan-1; 75 μCi 90Y-hPAM4 level, ADC alone, or their combination, n=10",1 of 10
same,tumor-free animals,"Capan-1; 130 μCi 90Y-hPAM4 level, n=10",5 of 10
same,disease control rate (CR+PR+SD),pancreatic cancer,68%
same,partial responses,pancreatic cancer,23%
same,stabilization as best response,pancreatic cancer,45%
"hPAM4 (antibody, chains of the INN, looked up, V domains shown) VH: QVQLQQSGAEVKKPGASVKVSCEASGYTFPSYVLHWVKQAPGQGLEWIGYINPYNDGTQYNEKFKGKATLTRDTSINTAYMELSRLRSDDTAVYYCARGFGGSYGFAYWGQGTLVTVSS VL: DIQLTQSPSSLSASVGDRVTMTCSASSSVSSSYLYWYQQKPGKAPKLWIYSTSNLASGVPARFSGSGSGTDFTLTISSLQPEDSASYFCHQWNRYPYTFGGGTRLEIK",anti-tumor activity of unconjugated antibodies,Capan-1; given alone,Neither unconjugated hPAM4 nor hRS7 antibodies had anti-tumor activity
